Measurements from PubChem BioAssay (NCI).
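Step 1: Grow cells in 96-well plates. Step 2: Expose to compound for 48 hours at 5 concentrations. Step 3: Interpolate endpoints linearly; if unreached, use highest concentration. The concentration for 50% growth inhibition is given as GI50. TGI: total growth inhibition.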

Experiments:
Test in all cases: inhibition of tumour cell growth, NCI panel, 48 h
DU-145 prostate = tested on: DU-145 prostate
T-47D breast = tested on: T-47D breast
BT-549 breast = tested on: BT-549 breast
A549 NSCLC = tested on: A549 NSCLC
OVCAR-5 ovarian = tested on: OVCAR-5 ovarian
786-0 renal = tested on: 786-0 renal
HS 578T breast = tested on: HS 578T breast
MDA-N = tested on: MDA-N
MDA-MB-231 breast = tested on: MDA-MB-231 breast
HOP-18 NSCLC = tested on: HOP-18 NSCLC
DMS 273 small cell lung = tested on: DMS 273 small cell lung
DMS 114 small cell lung = tested on: DMS 114 small cell lung
DLD-1 colon = tested on: DLD-1 colon

Compound	TGI (DU-145 prostate) [µM]	TGI (T-47D breast) [µM]	TGI (BT-549 breast) [µM]	TGI (A549 NSCLC) [µM]	TGI (OVCAR-5 ovarian) [µM]	TGI (786-0 renal) [µM]	TGI (HS 578T breast) [µM]	TGI (MDA-N) [µM]	GI50 (DU-145 prostate) [µM]	GI50 (BT-549 breast) [µM]	GI50 (A549 NSCLC) [µM]	GI50 (MDA-MB-231 breast) [µM]	TGI (MDA-MB-231 breast) [µM]	GI50 (OVCAR-5 ovarian) [µM]	GI50 (HS 578T breast) [µM]	GI50 (T-47D breast) [µM]	TGI (HOP-18 NSCLC) [µM]	TGI (DMS 273 small cell lung) [µM]	TGI (DMS 114 small cell lung) [µM]	TGI (DLD-1 colon) [µM]
CC(C)(C)[Si](C)(C)Oc1ccc(C2CNC(=O)C23CCC(=O)N3Cc2ccccc2)cc1 (centres undefined)	38.7	63	33.1	33.2	36.9	45.3	21.5	27.3												
NCCCn1c2c(c3ccc([N+](=O)[O-])cc3c1=O)C(=O)c1ccccc1-2	0.474		0.881		1.3		2.29		0.0455	0.235	0.0233	0.136	0.472	0.414	0.657					
CC(=O)NNc1nc(-c2ccc([N+](=O)[O-])cc2)c(C#N)c(=O)n1C	> 100	> 100	23	> 100	77	47	99.5	> 100					34.2							
COc1cc(C2CC(c3cccc(Nc4ccncc4)c3)=NN2c2ccc(Cl)cc2)cc(OC)c1OC (centres undefined)	3.17	4.23			3.13				1.78					1.66		1.79				
CCOC(=O)c1c2c(n(Cc3ccccc3)c1C)C(=O)C(=O)c1ccccc1-2	0.972	2.19		1.35		1.49	2.19						1.99							
Oc1cn(-c2ccc(Cl)cc2)nc1-c1n[nH]c(=S)n1-c1ccccc1	> 100	> 100		35.6	46.2	27.1	55.1						> 100							
Cc1cc2c(cc1C(=O)c1ccc(N)cc1)OCO2	> 100	> 100	> 100	> 100	> 100	> 100	> 100	35.1					> 100							
CN(C)C(=O)/C=C/c1c[nH]c(=O)[nH]c1=O				> 500	> 500												> 500	> 500	> 500	> 500
COc1ccc(-c2nc3ncccn3c2-c2ccc(SC)cc2)cc1			46.5	9.88	7.06	46	7.7						> 100							
COc1ccc2c(c1)CCCN2CCCCCCCCCCN(CCC(C)C)CCC(C)C				26.2	28.4	27.5											24.7	23.2	19.5	22.6
NCCc1cc(O)c(O)cc1O	32.4	73.2	70.6	> 100	61.3	> 69.1	> 100	47					44.6		34.4					
CCc1nc(N)nc(N)c1-c1ccc([N+](C)(C)C)cc1	> 100	> 100	> 100	> 100	> 100	> 100	> 100	> 100					> 100							
COc1cc(/C=C/C(=O)Oc2ccc(NC(C)=O)cc2)ccc1C(=O)O/C=C/c1ccccc1				> 100	> 100												> 100	> 100	> 100	> 100
O=C1NI(C#Cc2ccccc2)c2ccccc21	> 100	> 100	> 100	> 100		> 100	> 100	> 100					> 100							
C[C@H]1C(=O)O[C@@H]2CCN3CC=C(COC(=O)[C@](C)(O)[C@@]1(C)O)[C@H]23	> 100	> 100	> 100	> 100	> 100	> 100	> 100	> 100					> 100							
COc1ccc(/C(Cl)=C(\C=O)c2ccc(OC)cc2)cc1				> 100	> 100												> 100	> 100	> 100	> 100
Nc1n[nH]c(=O)c2c1c(I)cn2C1OC(CO)C(O)C1O (centres undefined)				> 100													> 100	2.63	6.62	> 100
O=P1(c2ccccc2)Nc2ccccc2SSc2ccccc2N1				46.1	36.1												36.6	33.7	43	31.8
O=C(Nc1ccc([N+](=O)[O-])cc1[N+](=O)[O-])C(=O)C(C(=O)c1ccc2ccccc2c1)C1OC(=O)c2ccccc21 (centres undefined)				61.7	58.2													61.4	45.1	81.4
